Reference: the supplement of paper PMC4862054

Key:
Settings in all cases: incubation time: 72 h
BT-474 [1] = assay: drug sensitivity score (DSS), CellTiter-Blue viability (DSS (AUC-based score)); higher = stronger viability inhibition; extreme values may be limits of the assay
Method in brief: (§1)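 Into 384-well plates carrying compound in a 5- or 9-concentration series went 20 µl of breast cancer cell suspension, followed by 72 h of incubation. Adding 2.5 µl CellTiter-Blue per well and incubating 2 h at 37 °C preceded fluorescence measurement at 560/590 nm. After normalisation of each plate to 0.1 % DMSO and a positive kill control, dose-response curves were fitted and the area beneath them taken as the drug sensitivity score.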

HDQ-P1 [2] = assay: as above
Method in brief: as §1

MDA-MB-231 = assay: as above
Method in brief: as §1

CAL-148 [3] = assay: as above
Method in brief: as §1

BT-549 = assay: as above
Method in brief: as §1

Hs578T [4] = assay: as above
Method in brief: as §1

MFM-223 = assay: as above
Method in brief: as §1

CAL-85-1 = assay: as above
Method in brief: as §1

DU-4475 [5] = assay: as above
Method in brief: as §1

CAL-51 [6] = assay: as above
Method in brief: as §1

MDA-MB-468 [7] = assay: as above
Method in brief: as §1

HCC1937 [8] = assay: as above
Method in brief: as §1

BT-474 [9] = assay: drug sensitivity score (DSS), CellTox Green (DSS (AUC-based score)); higher = stronger drug effect (viability inhibition or cytotoxicity); extreme values may be limits of the assay
Method in brief: (§2)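 The area under the fitted dose-response curve was used to calculate the drug sensitivity score. Cells from breast cancer lines were incubated for 72 h in 384-well plates with compound at 5 concentrations spaced 10-fold over a 10,000-fold range specific to each compound. Plates were read for CellTox Green and then CellTiter-Glo, and normalised to 0.1 % DMSO and a positive kill control.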

HDQ-P1 [10] = assay: as above
Method in brief: as §2

MDA-MB-453 = assay: as above
Method in brief: as §2

CAL-148 [11] = assay: as above
Method in brief: as §2

Hs578T [12] = assay: as above
Method in brief: as §2

HCC1599 = assay: as above
Method in brief: as §2

CAL-120 = assay: as above
Method in brief: as §2

DU-4475 [13] = assay: as above
Method in brief: as §2

HCC1143 = assay: as above
Method in brief: as §2

MDA-MB-436 = assay: as above
Method in brief: as §2

CAL-51 [14] = assay: as above
Method in brief: as §2

MCF-10A = assay: as above
Method in brief: as §2

MDA-MB-468 [15] = assay: as above
Method in brief: as §2

HCC1937 [16] = assay: as above
Method in brief: as §2

Structure (SMILES)	drug sensitivity score (BT-474 [1])	drug sensitivity score (HDQ-P1 [2])	drug sensitivity score (MDA-MB-231)	drug sensitivity score (CAL-148 [3])	drug sensitivity score (BT-549)	drug sensitivity score (Hs578T [4])	drug sensitivity score (MFM-223)	drug sensitivity score (CAL-85-1)	drug sensitivity score (DU-4475 [5])	drug sensitivity score (CAL-51 [6])	drug sensitivity score (MDA-MB-468 [7])	drug sensitivity score (HCC1937 [8])	drug sensitivity score (BT-474 [9])	drug sensitivity score (HDQ-P1 [10])	drug sensitivity score (MDA-MB-453)	drug sensitivity score (CAL-148 [11])	drug sensitivity score (Hs578T [12])	drug sensitivity score (HCC1599)	drug sensitivity score (CAL-120)	drug sensitivity score (DU-4475 [13])	drug sensitivity score (HCC1143)	drug sensitivity score (MDA-MB-436)	drug sensitivity score (CAL-51 [14])	drug sensitivity score (MCF-10A)	drug sensitivity score (MDA-MB-468 [15])	drug sensitivity score (HCC1937 [16])
CC(C)C[C@H](NC(=O)[C@@H](COC(C)(C)C)NC(=O)[C@H](Cc1ccc(O)cc1)NC(=O)[C@H](CO)NC(=O)[C@H](Cc1c[nH]c2ccccc12)NC(=O)[C@H](Cc1cnc[nH]1)NC(=O)[C@@H]1CCC(=O)N1)C(=O)N[C@@H](CCCNC(=N)N)C(=O)N1CCC[C@H]1C(=O)NNC(N)=O [Goserelin]	0	0	0	0	0	0	0	0	0	0	0	0	0.105	0.917	0	0	1.59	0	0	0	0	0	0	0	0	0
CNC(=O)c1ccccc1Sc1ccc2c(/C=C/c3ccccn3)n[nH]c2c1 [Axitinib]	0	4.73	2.62	5.17	4.37	0	11.4	4.41	6.24	6.1	1.45	5.79	0	0	0	2.44	0	0	0	0	0	0	6.53	0	0	0
C/C(=C\c1csc(C)n1)[C@@H]1C[C@@H]2O[C@]2(C)CCC[C@H](C)[C@H](O)[C@@H](C)C(=O)C(C)(C)[C@@H](O)CC(=O)N1 [Ixabepilone]	2.15	0	10.5	2.58	3.35	2.45	2.45	2.08	2.31	0.607	3.09	5.41	0	0	0	0	0	0	0	0	0	0	11.7	0	1.3	0
